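Protocol summary: plate cells (96-well), add compound at 5 concentrations, incubate 48 h, interpolate endpoints linearly. TGI: concentration producing complete growth inhibition.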
These compounds were tested on SN12C renal (assay: NCI anticancer screen, dose series, 48 h).
`N#C/C(C(=O)Nc1ccccc1)=C(/N)N1CCOCC1` was tested, and the TGI was > 100 µM. In the case of `O/N=C1/COC(C(F)(F)F)(C(F)(F)F)C1`, the TGI is reported as > 100 µM. With `CNn1c(-c2ccccc2)n[nH]c1=O` the TGI was > 100 µM. For `CS(=O)(=O)Nc1ccc(N2Cc3cnc4ccc5[nH]ccc2c5c34)cc1`, the TGI was 35 µM. For `CC(C)(C)OC(=O)NCC(O)CNC(=O)OC(C)(C)C`, the TGI was > 100 µM. For `CCc1nc(N)nc(N)c1-c1ccc(Cl)c(Cl)c1`, the TGI was > 100 µM. Work on `NS(=O)(=O)c1nn2c(Br)c(-c3ccccc3)nc2s1` yielded a TGI of 7.94 µM. In the case of `CC1=C(C#N)C(C#N)(C#N)C(NN(C)C)C1` (stereo unspecified), the TGI is reported as 27.3 µM. `COc1nc(C(=O)NNC(=O)c2nc(OC)c3ccccc3c2-c2ccccc2)c(-c2ccccc2)c2ccccc12` was tested, and the TGI was > 100 µM. `CCOC(=O)C1=C(C)N(C)C23OC4(C(=O)OC)CC2c2ccccc2C1N3C4=O` (stereo unspecified) was tested, and the TGI was > 100 µM. `CC(=O)OCc1cc(CCC(=O)NCCNc2c3ccccc3nc3ccccc23)cc(COC(C)=O)c1O[Si](C)(C)C(C)(C)C` gave a TGI of 3.38 µM. Compound `CC(=O)NC1C(OCc2ccccc2)OC(CO)C(O)C1OC(C)C(=O)NC(C)C(=O)NC(CCC(=O)NCCCNc1c2ccccc2nc2cccc([N+](=O)[O-])c12)C(N)=O` (stereo unspecified) has a TGI of 11 µM. `Cc1ccc(/C=N/n2c(=O)[nH]c3ccccc3c2=O)cc1` was tested, and the TGI was > 100 µM. Compound `Cc1nc2ccccc2c(=O)n1NC(=O)c1ccc(CS)cc1` has a TGI of 70.8 µM. For `c1ccc2sc(C3(N4CCCC4)CCCCCC3)cc2c1`, the TGI was 29.2 µM.

The compounds below were run on SNB-19 CNS (assay: NCI anticancer screen, dose series, 48 h).
`CC(=O)Nc1cc(C(=O)Nc2cc(C(=O)N3CC(CCl)c4c3cc(N)c3ccccc43)nn2C)nn1C` (stereo unspecified) gave a TGI of 3.14 µM. `NC(Cc1cccc([N+](=O)[O-])c1)C(=O)O` (stereo unspecified) was tested, and the TGI was > 100 µM. With `CCCCCN=Cc1c(O)c(O)c(C(C)C)c2cc(C)c(-c3c(C)cc4c(C(C)C)c(O)c(O)c(C=NCCCCC)c4c3O)c(O)c12` the TGI was 18.8 µM. In the case of `O=C(O)/C=N\Nc1nc2ccccc2[nH]1`, the TGI is reported as > 100 µM. For `Clc1c(Cl)c(Cl)c2nn(C3CCCO3)nc2c1Cl` (stereo unspecified), the TGI was > 100 µM. With `CC(=O)OCCn1cnc2nc(Nc3ccccc3)nc(Cl)c21` the TGI was > 100 µM. In the case of `O=C1OC[C@@H]2Cc3cc4c(cc3[C@H](c3ccc5c(c3)OCO5)[C@@H]12)OCO4`, the TGI is reported as > 25 µM. In the case of `N#C/C(C(=O)Nc1ccccc1)=C(/N)N1CCOCC1`, the TGI is reported as > 100 µM. With `O/N=C1/COC(C(F)(F)F)(C(F)(F)F)C1` the TGI was > 100 µM. In the case of `CNn1c(-c2ccccc2)n[nH]c1=O`, the TGI is reported as > 100 µM. With `CS(=O)(=O)Nc1ccc(N2Cc3cnc4ccc5[nH]ccc2c5c34)cc1` the TGI was 42 µM. `CC(C)(C)OC(=O)NCC(O)CNC(=O)OC(C)(C)C` was tested, and the TGI was > 100 µM. In the case of `CCc1nc(N)nc(N)c1-c1ccc(Cl)c(Cl)c1`, the TGI is reported as > 100 µM. With `NS(=O)(=O)c1nn2c(Br)c(-c3ccccc3)nc2s1` the TGI was 22.8 µM. `COc1nc(C(=O)NNC(=O)c2nc(OC)c3ccccc3c2-c2ccccc2)c(-c2ccccc2)c2ccccc12` was tested, and the TGI was > 100 µM. With `CCOC(=O)C1=C(C)N(C)C23OC4(C(=O)OC)CC2c2ccccc2C1N3C4=O` (stereo unspecified) the TGI was > 100 µM. `CC(=O)OCc1cc(CCC(=O)NCCNc2c3ccccc3nc3ccccc23)cc(COC(C)=O)c1O[Si](C)(C)C(C)(C)C` gave a TGI of 31.2 µM. `CC(=O)NC1C(OCc2ccccc2)OC(CO)C(O)C1OC(C)C(=O)NC(C)C(=O)NC(CCC(=O)NCCCNc1c2ccccc2nc2cccc([N+](=O)[O-])c12)C(N)=O` (stereo unspecified) was tested, and the TGI was > 100 µM. `Cc1ccc(/C=N/n2c(=O)[nH]c3ccccc3c2=O)cc1` was tested, and the TGI was > 100 µM. For `Cc1nc2ccccc2c(=O)n1NC(=O)c1ccc(CS)cc1`, the TGI was > 100 µM. `c1ccc2sc(C3(N4CCCC4)CCCCCC3)cc2c1` was tested, and the TGI was 29.9 µM.

The compounds below were run on SNB-75 CNS (assay: NCI anticancer screen, dose series, 48 h).
`CC(=O)Nc1cc(C(=O)Nc2cc(C(=O)N3CC(CCl)c4c3cc(N)c3ccccc43)nn2C)nn1C` (stereo unspecified) gave a TGI of 0.0775 µM. With `O=C(O)/C=N\Nc1nc2ccccc2[nH]1` the TGI was > 100 µM. For `N#C/C(C(=O)Nc1ccccc1)=C(/N)N1CCOCC1`, the TGI was > 100 µM. In the case of `O/N=C1/COC(C(F)(F)F)(C(F)(F)F)C1`, the TGI is reported as > 100 µM. With `CNn1c(-c2ccccc2)n[nH]c1=O` the TGI was > 100 µM. For `CCc1nc(N)nc(N)c1-c1ccc(Cl)c(Cl)c1`, the TGI was > 100 µM. Work on `NS(=O)(=O)c1nn2c(Br)c(-c3ccccc3)nc2s1` yielded a TGI of 19.5 µM. In the case of `CC1=C(C#N)C(C#N)(C#N)C(NN(C)C)C1` (stereo unspecified), the TGI is reported as 40.3 µM. In the case of `COc1nc(C(=O)NNC(=O)c2nc(OC)c3ccccc3c2-c2ccccc2)c(-c2ccccc2)c2ccccc12`, the TGI is reported as > 100 µM. In the case of `CCOC(=O)C1=C(C)N(C)C23OC4(C(=O)OC)CC2c2ccccc2C1N3C4=O` (stereo unspecified), the TGI is reported as > 100 µM. For `CC(=O)NC1C(OCc2ccccc2)OC(CO)C(O)C1OC(C)C(=O)NC(C)C(=O)NC(CCC(=O)NCCCNc1c2ccccc2nc2cccc([N+](=O)[O-])c12)C(N)=O` (stereo unspecified), the TGI was 9.92 µM. In the case of `Cc1nc2ccccc2c(=O)n1NC(=O)c1ccc(CS)cc1`, the TGI is reported as > 100 µM. In the case of `c1ccc2sc(C3(N4CCCC4)CCCCCC3)cc2c1`, the TGI is reported as 34.5 µM.

These compounds were tested on UACC-257 melanoma (assay: NCI anticancer screen, dose series, 48 h).
`CC(=O)Nc1cc(C(=O)Nc2cc(C(=O)N3CC(CCl)c4c3cc(N)c3ccccc43)nn2C)nn1C` (stereo unspecified) was tested, and the TGI was 2.09 µM. `NC(Cc1cccc([N+](=O)[O-])c1)C(=O)O` (stereo unspecified) was tested, and the TGI was > 100 µM. `CCCCCN=Cc1c(O)c(O)c(C(C)C)c2cc(C)c(-c3c(C)cc4c(C(C)C)c(O)c(O)c(C=NCCCCC)c4c3O)c(O)c12` showed a TGI of 46.2 µM. With `O=C(O)/C=N\Nc1nc2ccccc2[nH]1` the TGI was > 100 µM. In the case of `Clc1c(Cl)c(Cl)c2nn(C3CCCO3)nc2c1Cl` (stereo unspecified), the TGI is reported as > 100 µM. For `CC(=O)OCCn1cnc2nc(Nc3ccccc3)nc(Cl)c21`, the TGI was > 100 µM. `O=C1OC[C@@H]2Cc3cc4c(cc3[C@H](c3ccc5c(c3)OCO5)[C@@H]12)OCO4` was tested, and the TGI was > 25 µM. `N#C/C(C(=O)Nc1ccccc1)=C(/N)N1CCOCC1` was tested, and the TGI was > 100 µM. In the case of `O/N=C1/COC(C(F)(F)F)(C(F)(F)F)C1`, the TGI is reported as > 100 µM. For `CNn1c(-c2ccccc2)n[nH]c1=O`, the TGI was > 100 µM. For `CS(=O)(=O)Nc1ccc(N2Cc3cnc4ccc5[nH]ccc2c5c34)cc1`, the TGI was 31.8 µM. For `CC(C)(C)OC(=O)NCC(O)CNC(=O)OC(C)(C)C`, the TGI was > 100 µM. In the case of `CCc1nc(N)nc(N)c1-c1ccc(Cl)c(Cl)c1`, the TGI is reported as > 100 µM. For `NS(=O)(=O)c1nn2c(Br)c(-c3ccccc3)nc2s1`, the TGI was 15.5 µM. For `CC1=C(C#N)C(C#N)(C#N)C(NN(C)C)C1` (stereo unspecified), the TGI was 26.4 µM. With `COc1nc(C(=O)NNC(=O)c2nc(OC)c3ccccc3c2-c2ccccc2)c(-c2ccccc2)c2ccccc12` the TGI was > 100 µM. For `CCOC(=O)C1=C(C)N(C)C23OC4(C(=O)OC)CC2c2ccccc2C1N3C4=O` (stereo unspecified), the TGI was > 100 µM. `CC(=O)OCc1cc(CCC(=O)NCCNc2c3ccccc3nc3ccccc23)cc(COC(C)=O)c1O[Si](C)(C)C(C)(C)C` was tested, and the TGI was 14.6 µM. `CC(=O)NC1C(OCc2ccccc2)OC(CO)C(O)C1OC(C)C(=O)NC(C)C(=O)NC(CCC(=O)NCCCNc1c2ccccc2nc2cccc([N+](=O)[O-])c12)C(N)=O` (stereo unspecified) showed a TGI of 4.71 µM. For `Cc1ccc(/C=N/n2c(=O)[nH]c3ccccc3c2=O)cc1`, the TGI was > 100 µM. `Cc1nc2ccccc2c(=O)n1NC(=O)c1ccc(CS)cc1` was tested, and the TGI was > 100 µM. In the case of `c1ccc2sc(C3(N4CCCC4)CCCCCC3)cc2c1`, the TGI is reported as 31 µM.

Each compound was assayed on UACC-62 melanoma (assay: NCI anticancer screen, dose series, 48 h).
`CC(=O)Nc1cc(C(=O)Nc2cc(C(=O)N3CC(CCl)c4c3cc(N)c3ccccc43)nn2C)nn1C` (stereo unspecified) was tested, and the TGI was 0.0631 µM. With `NC(Cc1cccc([N+](=O)[O-])c1)C(=O)O` (stereo unspecified) the TGI was > 100 µM. `CCCCCN=Cc1c(O)c(O)c(C(C)C)c2cc(C)c(-c3c(C)cc4c(C(C)C)c(O)c(O)c(C=NCCCCC)c4c3O)c(O)c12` showed a TGI of 33 µM. For `O=C(O)/C=N\Nc1nc2ccccc2[nH]1`, the TGI was > 100 µM. `Clc1c(Cl)c(Cl)c2nn(C3CCCO3)nc2c1Cl` (stereo unspecified) was tested, and the TGI was > 100 µM. With `CC(=O)OCCn1cnc2nc(Nc3ccccc3)nc(Cl)c21` the TGI was > 100 µM. In the case of `N#C/C(C(=O)Nc1ccccc1)=C(/N)N1CCOCC1`, the TGI is reported as > 100 µM. For `O/N=C1/COC(C(F)(F)F)(C(F)(F)F)C1`, the TGI was > 100 µM. For `CNn1c(-c2ccccc2)n[nH]c1=O`, the TGI was > 100 µM. Work on `CS(=O)(=O)Nc1ccc(N2Cc3cnc4ccc5[nH]ccc2c5c34)cc1` yielded a TGI of 35.9 µM. For `CC(C)(C)OC(=O)NCC(O)CNC(=O)OC(C)(C)C`, the TGI was > 100 µM. In the case of `CCc1nc(N)nc(N)c1-c1ccc(Cl)c(Cl)c1`, the TGI is reported as > 100 µM. Compound `NS(=O)(=O)c1nn2c(Br)c(-c3ccccc3)nc2s1` has a TGI of 15.4 µM. For `CC1=C(C#N)C(C#N)(C#N)C(NN(C)C)C1` (stereo unspecified), the TGI was 61.6 µM. With `COc1nc(C(=O)NNC(=O)c2nc(OC)c3ccccc3c2-c2ccccc2)c(-c2ccccc2)c2ccccc12` the TGI was > 100 µM. With `CCOC(=O)C1=C(C)N(C)C23OC4(C(=O)OC)CC2c2ccccc2C1N3C4=O` (stereo unspecified) the TGI was > 100 µM. `CC(=O)OCc1cc(CCC(=O)NCCNc2c3ccccc3nc3ccccc23)cc(COC(C)=O)c1O[Si](C)(C)C(C)(C)C` showed a TGI of 19.5 µM. With `CC(=O)NC1C(OCc2ccccc2)OC(CO)C(O)C1OC(C)C(=O)NC(C)C(=O)NC(CCC(=O)NCCCNc1c2ccccc2nc2cccc([N+](=O)[O-])c12)C(N)=O` (stereo unspecified) the TGI was 3.82 µM. With `Cc1ccc(/C=N/n2c(=O)[nH]c3ccccc3c2=O)cc1` the TGI was > 100 µM. `c1ccc2sc(C3(N4CCCC4)CCCCCC3)cc2c1` was tested, and the TGI was 31.1 µM.

From PubChem BioAssay (NCI)
